Values joined by “and” are separate entries in the source; they are usually repeats but may differ in a detail not shown here. Equal values may be shown once.

This note sets out measurements from patent US6967192B2, “Seventeen amino acid peptide (Peptide P) for treating ischemia and reperfusion injury” (University of Kentucky Research Foundation, priority 2001, dated 2005).

This assay deals with murine model of ischemia/reperfusion injury (cerebral ischemia). The assay is described as follows: Murine ischemia/reperfusion model: brain infarct size/volume by TTC staining. In kind it is in vivo, mouse. Further details: Damaged Cross Section Area (sum of sections), individual mice: unit: mm^2. The note with it: for infarct size (Damaged %), Average: 4 mg/Kg I.V. 1 hr after occlusion, 1 hr ischemia; for infarct size (Damaged %), Average / infarct volume (Corrected Volume), Average: mean ± SEM.

[1] abbreviates: 4 mg/Kg after 1 hr ischemia, 24 hr reperfusion, n=6.
The mark [2] stands for this setting: 4 mg/Kg after 1 hr ischemia, 24 hr reperfusion, mice No. 1-6, listed as Pep-P.

Consider “Tyr-D-Ala-Phe-Ala-Asp-Val-Ala-Ser-Thr-Ile-Gly-Asp-Phe-Phe-His-Ser-Ile-NH2 (AFADVASTIGDFFHSI; D-Ala, C-terminal amide; printed: Ala-Phe-Ala-Asp-Val-Ala-Ser-Thr-Ile-Gly-Asp-Phe-Phe-His-Ser-Ile-) [Peptide P, linear 17 amino acid peptide with alanine as D-isomer]”, for which, for the setting “24 hr reperfusion, n=6”, the “infarct size (Damaged %), Average” value was 16.87+/−3.3%. The “infarct size (Damaged %), Average” value (24 hr reperfusion, n=6, listed as Pep-P) is 16.87 ± 3.3%. For the same substance, under setting [1], the “infarct volume (Corrected Volume), Average” value is 24±4.8 mm^3 and the “Damaged Cross Section Area (sum of sections), Average” value was 11.87 ± 2.4%. Where the note is “4 mg/Kg after 1 hr ischemia, 24 hr reperfusion, n=6, listed as Pep-P”, the “infarct volume (Corrected Volume), Average” value is given as 23.74 ± 4.8% mm^3. Also, where the note is “4 mg/Kg after 1 hr ischemia, 24 hr reperfusion, mice No. 1-6, Damaged Cross Section Area × 2 mm section, listed as Pep-P”, the “Corrected Volume, individual mice” value is 35.32 mm^3 and 5.10 mm^3 and 16.98 mm^3 and 35.86 mm^3 and 25.84 mm^3 and 23.36 mm^3. Besides, under setting [2], the “Damaged %, individual mice” value was 25.77% and 3.94% and 12.69% and 24.58% and 18.16% and 16.10%; the “Damaged Cross Section Area (sum of sections), individual mice” value was 17.66 and 2.55 and 8.49 and 17.93 and 12.92 and 11.68. Moreover, the “reduction of infarct volume compared to control animals” value (4 mg/kg, after 24 h of reperfusion) was 59%. In addition, the “Damaged Cross Section Area 1, individual mice” value (brain section 1, 4 mg/Kg after 1 hr ischemia, 24 hr reperfusion, listed as Pep-P, 4 mg/kg) is 3.69 and 0 (2×) and 1.42 and 1.89 and 0.27. Besides, the “Damaged Cross Section Area 2, individual mice” value (brain section 2, 4 mg/Kg after 1 hr ischemia, 24 hr reperfusion, listed as Pep-P, 4 mg/kg) is 5.66 and 0.32 and 1.38 and 3.27 and 4.59 and 1.8. The “Damaged Cross Section Area 3, individual mice” value (brain section 3, 4 mg/Kg after 1 hr ischemia, 24 hr reperfusion, listed as Pep-P, 4 mg/kg) was 6.47 and 1.12 and 2.63 and 7.23 and 2.22 and 5.15. Further, the “Damaged Cross Section Area 4, individual mice” value (brain section 4, 4 mg/Kg after 1 hr ischemia, 24 hr reperfusion, listed as Pep-P, 4 mg/kg) was 1.84 and 1.11 and 3.06 and 5.54 and 6.11 and 4.46.
